Measurements taken from ChEMBL document CHEMBL1201862, “PubChem BioAssay data set” (2004).
The source made the active and inactive calls.

Tests used:
Cytochrome P450 1A2 = biological target: T1, Cytochrome P450 1A2 (Homo sapiens, UniProt P05177);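 note: PubChem cytochrome P450 panel assay, CYP1A2 panel member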
T1 sequence (P05177 whole entry): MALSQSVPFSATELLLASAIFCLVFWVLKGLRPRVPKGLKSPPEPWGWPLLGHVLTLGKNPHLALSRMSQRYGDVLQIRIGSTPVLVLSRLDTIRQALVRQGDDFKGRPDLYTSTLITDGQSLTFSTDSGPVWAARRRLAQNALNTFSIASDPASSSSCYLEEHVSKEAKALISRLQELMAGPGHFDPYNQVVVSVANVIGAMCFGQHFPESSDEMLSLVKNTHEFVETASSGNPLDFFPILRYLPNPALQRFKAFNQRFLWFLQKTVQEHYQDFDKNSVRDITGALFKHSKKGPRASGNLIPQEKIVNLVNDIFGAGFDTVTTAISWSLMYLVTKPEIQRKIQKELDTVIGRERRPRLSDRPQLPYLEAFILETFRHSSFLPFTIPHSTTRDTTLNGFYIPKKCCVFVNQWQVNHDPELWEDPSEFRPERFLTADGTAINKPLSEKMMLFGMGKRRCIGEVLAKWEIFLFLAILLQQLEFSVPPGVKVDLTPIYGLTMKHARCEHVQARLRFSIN

Kallikrein-7 = Kallikrein-7 (Homo sapiens, UniProt P49862); test: Fluorescence Intensity-based biochemical primary high throughput dose response assay to identify activators of kallikrein-7 (K7) zymogen.
H9c2 = test: cells; assay type: functional, cell-based; conditions: Rattus norvegicus, H9c2, Myocardium;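 note: confirmatory concentration-response retest of ultra-high-throughput screening hits for modulation of myocardial damage; cell death induced by hydrogen peroxide oxidative stress; compound pretreatment for 60 min then peroxide exposure for 2 h; potency is for protecting the cells against peroxide damage rather than for killing them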
cells = assay type: functional, cell-based; conditions: HEK-CNG
Galanin receptor type 3 = Galanin receptor type 3 (Homo sapiens, UniProt O60755); test: Fluorescence-based cell-based primary high throughput dose response assay to identify antagonists of the Galanin Receptor 3 (GalR3).; assay type: functional
[1] = biological target: Disintegrin and metalloproteinase domain-containing protein 17 (Homo sapiens, UniProt P78536); test: ADAM17 protease inhibitors, dose response, counter-screen for ADAM10 exosite inhibitor project, biochemical, quenched FRET substrate (AID 743253)
Aminopeptidase N = biological target: T2, Aminopeptidase N (Plasmodium falciparum FcB1/Columbia, UniProt O96935); test: P. falciparum M1AAP inhibitors, biochemical, fluorogenic H-Leu-NHMec substrate, 1536-well (AID 1445); set-up: species or system Plasmodium falciparum 3D7, 3D7
T2 sequence (O96935 whole entry): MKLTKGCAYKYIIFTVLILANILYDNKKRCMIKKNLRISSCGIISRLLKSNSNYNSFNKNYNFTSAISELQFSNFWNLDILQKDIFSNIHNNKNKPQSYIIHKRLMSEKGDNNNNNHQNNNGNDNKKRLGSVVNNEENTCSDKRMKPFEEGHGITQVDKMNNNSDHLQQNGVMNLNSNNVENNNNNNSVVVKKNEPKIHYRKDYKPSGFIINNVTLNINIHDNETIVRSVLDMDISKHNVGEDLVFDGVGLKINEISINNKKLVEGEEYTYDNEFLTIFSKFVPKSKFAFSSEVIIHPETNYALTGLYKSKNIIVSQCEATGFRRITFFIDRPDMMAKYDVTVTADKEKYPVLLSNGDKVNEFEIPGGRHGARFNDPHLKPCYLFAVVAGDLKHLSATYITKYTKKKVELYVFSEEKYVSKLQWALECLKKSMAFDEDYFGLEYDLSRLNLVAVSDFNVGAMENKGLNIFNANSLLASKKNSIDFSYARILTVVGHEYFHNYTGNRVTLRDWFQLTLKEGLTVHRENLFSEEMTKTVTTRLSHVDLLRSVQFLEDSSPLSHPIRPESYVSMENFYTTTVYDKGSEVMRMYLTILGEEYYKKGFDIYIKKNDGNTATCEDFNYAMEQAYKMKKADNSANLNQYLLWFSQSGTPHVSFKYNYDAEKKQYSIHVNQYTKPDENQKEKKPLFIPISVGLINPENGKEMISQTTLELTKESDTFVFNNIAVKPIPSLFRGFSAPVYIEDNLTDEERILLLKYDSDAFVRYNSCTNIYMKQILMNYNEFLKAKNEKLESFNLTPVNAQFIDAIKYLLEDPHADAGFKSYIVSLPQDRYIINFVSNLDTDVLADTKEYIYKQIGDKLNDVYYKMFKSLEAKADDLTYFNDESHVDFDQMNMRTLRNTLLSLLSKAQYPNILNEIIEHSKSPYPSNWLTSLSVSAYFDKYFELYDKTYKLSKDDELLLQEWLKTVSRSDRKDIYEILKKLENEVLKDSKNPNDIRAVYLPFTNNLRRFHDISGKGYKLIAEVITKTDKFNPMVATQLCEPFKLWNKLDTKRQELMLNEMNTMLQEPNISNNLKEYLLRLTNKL

[2] = T. cruzi growth inhibition in host cells, dose response, cell-based, plate reader, dry powder, set 2 (AID 652275); assay type: functional
[3] = HEK293T cytotoxicity, dose response, cytotoxicity control for miR-122 modulator project, cell-based, inhibitor set, cherry-pick, set 2 (AID 720697); assay type: functional
[4] = ADAM10 protease inhibitors, dose response, selectivity assay for ADAM17 exosite inhibitor project, biochemical, FRET peptide substrate, recombinant human ADAM10 (AID 743259);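 note: ADAM10 enzyme cleaving a FRET peptide substrate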
[5] = growth suppression of beta-catenin-knockout colon cells, dose response, cell-based, HCT116, human colon tumor (AID 1045); assay type: functional;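 note: HCT116 colon tumor cells with beta catenin knocked out; cells exposed to compound for 60 hours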
[6] = growth suppression of PTEN-null colon cells, dose response, cell-based, HCT116 PTEN knockout (AID 1047); assay type: functional;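 note: HCT116 colon tumor cells with PTEN knocked out; cells exposed to compound for 60 hours before readout; potency for loss of cell viability measured by luminescence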
[7] = LGR2 antagonists, dose response, cell-based, HEK293, CRE-luciferase reporter, cherry pick, set 2 (AID 743343); assay type: functional;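 note: transfected cells were stimulated with diluted bursicon conditioned medium after compound addition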
[8] = A549 cell cytotoxicity, dose response, cytotoxicity control, plate reader, cherry-pick, antagonist series (AID 743412); assay type: functional, cell-based
[9] = Luminescence Cell-Based Dose Response HTS to Identify Inhibitors of 5'UTR Stem-Loop Driven Prion Protein mRNA Translation in H4 Neuroglioblastoma Cells. [Related pubchem assays: 1827 (Project Summary), 1813 (Primary HTS)]; assay type: functional
[10] = inhibitors of SNCA 5'UTR-driven reporter translation, confirmation, H4 neuroglioma cells, luminescence (AID 1988); assay type: functional, cell-based
HEK293 = test: inhibitors of LMP1-driven NF-kB reporter, dose response, cell-based, HEK293, luciferase, cherry-pick (AID 588343); assay type: functional; conditions: Homo sapiens
[11] = MC4R antagonists, dose response, counter-screen for LGR2 antagonist project, cell-based, plate reader, cherry pick (AID 743444); assay type: functional;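 note: transfected HEK 293 cells stimulated with alpha-MSH peptide; potency of inhibitors of the alpha-MSH evoked signal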
[12] = HepG2 cell cytotoxicity, dose response, cytotoxicity control, plate reader, cherry-pick, antagonist series (AID 743416); assay type: functional, cell-based
Paired box protein Pax-8 = Paired box protein Pax-8 (Homo sapiens, UniProt Q06710); test: inhibitors of PAX8-driven TPO luciferase reporter, dose response, RMG-I cells, cherry-pick (AID 687027); assay type: functional, cell-based;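 note: luciferase reporter driven by Pax8 target thyroperoxidase promoter measured by SteadyGlo luminescence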
[13] = cytotoxicity in OVCAR8 ovarian cancer cells, dose response, PAX8 project, cell-based, plate reader, dry powder samples (AID 743197); assay type: functional; conditions: OVCAR-8
[14] = NIH:OVCAR-3 ovarian cancer cell cytotoxicity, dose response, PAX8 inhibitor project, plate reader, dry powder samples (AID 743044); assay type: functional, cell-based
[15] = IGROV1 ovarian cancer cell cytotoxicity, dose response, PAX8 inhibitor project, plate reader, dry powder samples (AID 743043); assay type: functional, cell-based; conditions: IGROV-1
[16] = intracellular Trypanosoma cruzi inhibitors in host cells – cell-based, plate reader, cherry-pick samples, set 3, dose response (AID 651818); assay type: functional;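 note: compounds incubated with infected cells for about four days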

Kallikrein-7, sequence (P49862 whole entry): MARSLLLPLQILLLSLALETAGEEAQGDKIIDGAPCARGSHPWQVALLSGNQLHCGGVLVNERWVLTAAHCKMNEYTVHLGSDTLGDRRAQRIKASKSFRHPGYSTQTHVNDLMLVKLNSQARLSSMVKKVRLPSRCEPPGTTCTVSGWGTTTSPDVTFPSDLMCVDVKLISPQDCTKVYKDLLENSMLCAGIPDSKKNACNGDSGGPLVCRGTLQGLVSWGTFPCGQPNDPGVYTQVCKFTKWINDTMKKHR
Paired box protein Pax-8, sequence (Q06710 whole entry): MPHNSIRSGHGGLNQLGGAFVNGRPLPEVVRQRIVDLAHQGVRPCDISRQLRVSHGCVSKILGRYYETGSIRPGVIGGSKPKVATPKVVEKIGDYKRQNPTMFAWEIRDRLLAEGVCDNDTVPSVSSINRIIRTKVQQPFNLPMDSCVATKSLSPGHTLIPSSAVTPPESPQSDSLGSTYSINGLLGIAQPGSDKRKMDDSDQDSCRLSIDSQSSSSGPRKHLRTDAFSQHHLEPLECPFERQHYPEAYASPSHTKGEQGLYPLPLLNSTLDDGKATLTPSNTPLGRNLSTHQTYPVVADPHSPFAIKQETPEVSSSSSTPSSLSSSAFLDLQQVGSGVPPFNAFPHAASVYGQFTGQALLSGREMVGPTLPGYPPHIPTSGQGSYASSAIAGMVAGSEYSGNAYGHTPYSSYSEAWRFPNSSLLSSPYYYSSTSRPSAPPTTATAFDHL
Galanin receptor type 3, sequence (O60755 whole entry, the tested form may be a part): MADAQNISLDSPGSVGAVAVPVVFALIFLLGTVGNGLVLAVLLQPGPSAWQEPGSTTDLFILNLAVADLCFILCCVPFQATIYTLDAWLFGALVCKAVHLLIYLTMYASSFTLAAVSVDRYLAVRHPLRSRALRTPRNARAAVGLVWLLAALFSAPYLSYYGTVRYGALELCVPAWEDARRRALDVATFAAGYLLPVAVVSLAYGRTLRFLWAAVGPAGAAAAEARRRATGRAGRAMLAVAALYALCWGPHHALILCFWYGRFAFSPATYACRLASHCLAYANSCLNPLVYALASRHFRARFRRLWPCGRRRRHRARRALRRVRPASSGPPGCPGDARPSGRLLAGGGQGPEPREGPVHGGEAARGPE
Disintegrin and metalloproteinase domain-containing protein 17, sequence (P78536 whole entry, the tested form may be a part): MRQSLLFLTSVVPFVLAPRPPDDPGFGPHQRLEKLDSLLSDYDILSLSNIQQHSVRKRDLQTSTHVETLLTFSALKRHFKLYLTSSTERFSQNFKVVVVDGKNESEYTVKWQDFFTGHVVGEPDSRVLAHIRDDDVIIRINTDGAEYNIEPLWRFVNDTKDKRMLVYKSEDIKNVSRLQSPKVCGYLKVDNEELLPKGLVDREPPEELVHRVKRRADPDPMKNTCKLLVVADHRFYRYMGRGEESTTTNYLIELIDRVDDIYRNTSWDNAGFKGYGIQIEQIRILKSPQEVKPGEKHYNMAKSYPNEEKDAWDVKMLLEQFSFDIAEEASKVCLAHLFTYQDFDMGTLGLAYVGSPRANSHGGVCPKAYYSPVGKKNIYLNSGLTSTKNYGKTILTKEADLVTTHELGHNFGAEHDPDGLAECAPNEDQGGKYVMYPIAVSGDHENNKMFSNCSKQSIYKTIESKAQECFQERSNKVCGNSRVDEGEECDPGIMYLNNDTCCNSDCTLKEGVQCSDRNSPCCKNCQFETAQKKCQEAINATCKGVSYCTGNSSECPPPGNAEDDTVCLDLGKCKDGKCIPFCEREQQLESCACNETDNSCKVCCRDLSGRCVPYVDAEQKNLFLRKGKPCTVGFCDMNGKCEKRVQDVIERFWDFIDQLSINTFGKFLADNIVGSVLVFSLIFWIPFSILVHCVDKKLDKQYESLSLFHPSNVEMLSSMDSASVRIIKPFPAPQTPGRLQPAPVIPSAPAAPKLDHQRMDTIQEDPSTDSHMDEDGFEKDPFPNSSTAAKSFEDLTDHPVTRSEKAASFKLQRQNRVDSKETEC

With `CCC(C)C(NS(=O)(=O)c1ccc(C)cc1)C(=O)Oc1ccc2c3c(c(=O)oc2c1)CCC3` (stereo not given) the AC50 (Cytochrome P450 1A2) was 11.2 µM (inconclusive) and the EC50 (Kallikrein-7) was > 69.5 µM (inactive).

In the case of `Cc1noc(C)c1Cn1nc(C(=O)O)c2ccccc2c1=O`, the IC50 (H9c2) is reported as 18.6 µM (active), the EC50 (cells) is reported as > 29.9 µM (inactive) and the IC50 (Galanin receptor type 3) is reported as > 29.9 µM (inactive).

In the case of `CC(C)C[C@H](NC(=O)c1nc[nH]c1C(=O)Nc1ccc(CNC(=O)OC(C)(C)C)cc1)C(=O)OC(C)(C)C`, the IC50 [1] is reported as > 69.5 µM (inactive).

In the case of `CCN(CC)CCCNc1oc(/C=C/c2ccccc2)nc1C#N`, the IC50 (Aminopeptidase N) is reported as 61 µM (active) and the EC50 (Kallikrein-7) is reported as > 69.5 µM (inactive).

In the case of `C[C@H]1CN([C@@H](C)CO)C(=O)c2cccc(NC(=O)c3ccncc3)c2O[C@@H]1CN(C)Cc1cc(Cl)cc(Cl)c1`, the AC50 [2] is reported as 0.0105 µM (active).

For `CC(=O)Nc1ccc(-c2cc(-c3ccc(NC(C)=O)cc3)nc(-c3ccc(NC(C)=O)cc3)n2)cc1`, the AC50 [3] was 8.27 µM (active).

For `COc1cc(-c2nc(-c3ccc4c(c3)-c3ccccc3S4(=O)=O)c(-c3ccccc3)[nH]2)cc(OC)c1O`, the IC50 [4] was > 69.5 µM (inactive), the EC50 [5] was 19.8 µM (active) and the EC50 [6] was 14 µM (active).

With `O=C(NCCc1ccccc1)c1ccc2nccnc2c1` the AC50 [7] was 5 µM (active), the AC50 [8] was 22.1 µM (active) and the EC50 [9] was 9.34 µM (active). The EC50 [10] was 9.37 µM (active), the AC50 (HEK293) was 3.05 µM (active) and the AC50 [11] was 4.77 µM (active). The AC50 [12] was 20.3 µM (active).

With `C[C@@H]1CN([C@@H](C)CO)C(=O)c2cc(NC(=O)Nc3ccc(C(F)(F)F)cc3)ccc2O[C@H]1CN(C)C(=O)Nc1ccc(C(F)(F)F)cc1` the AC50 (Paired box protein Pax-8) was 5.97 µM (active), the AC50 [13] was 61.2 µM (active) and the AC50 [14] was 42.1 µM (active). For the same compound, the AC50 [15] was 52.1 µM (active) and the AC50 [16] was 3.41 µM (active).
